# Reference: paper PMC10307035, “Antiviral activity of singlet oxygen-photogenerating perylene compounds against SARS-CoV-2: Interaction with the viral envelope and photodynamic virion inactivation” (Virus Research, 2023)
# What was measured:
# CaCo-2 cells [1] = assay: Cellular stress marker expression by RT-qPCR in CaCo-2 cells; assay type: cell-based, human
# Protocol: RT-qPCR was performed to evaluate changes in the gene expression of cellular stress markers. […] Previous publications report the primer sequences and numbers of the Universal Probe Library (UPL; Roche Life Sciences, Germany) used for detection of ATF3, CDKN1A (p21), CYP1A1, DDIT3, HMOX1, HSPA1B (HSP70), and HSPA5 mRNAs ([Procházková et al., 2018]; [Šimečková et al., 2020]). […] TaqMan™ Gene Expression Assays (Thermo Fisher Scientific, Waltham, MA, USA) were used to determine the levels of FGF21 (Hs00173927_m1), GADD45A (Hs00169255_m1), GDF15 (Hs00171132_m1), and SRXN1 (Hs00607800_m1). The amplification was run in a 10-µL reaction mixture containing 1 µL of sample, using Kapa Probe Fast One-Step (Kapa Biosystems Pty, Cape Town, South Africa) on a LightCycler® 480 System (Roche Diagnostics, Czech Republic) using the previously published sequence ([Procházková et al., 2018]). Reference gene qPCR assays (Generi Biotech, Hradec Králové, Czech Republic) were used for the following housekeeping genes: human β2-Microglobulin (B2M; #3030), hydroxymethylbilane synthase (HMBS; #3032), and RNA polymerase II subunit A (POLR2A; #3035). We used an average of three reference gene Cp values to calculate the change in gene expression using the comparative threshold cycle method ([Schmittgen and Livak, 2008]).
# SARS-CoV-2 = assay: Photodynamic inactivation of SARS-CoV-2 virions; assay type: cell-based
# Protocol: Virus in DMEM (titer of 10^5 PFU/mL) was mixed with the compounds (0–10 µM) in a microtiter plate, in triplicate, and irradiated for 10 min at RT with LEDs (465–480 nm) having an approximate power density of 30 mW/cm^2 (device description in supplement). As a negative control, virus was incubated for 10 min in the dark at RT. Subsequently, both irradiated and non-irradiated virus samples were incubated in the dark at 37 °C for 60 min. All manipulation with the samples before and after this incubation, i.e., mixing the compound with the virus, pipetting into a microtiter plate, etc., were performed in daylight. Viral titers were determined by plaque assays (performed also in daylight) and expressed as PFU/mL, as previously described ([Stefanik et al., 2021]). To eliminate the influence of daylight on compound activity, the whole experiment, including all manipulation with samples, was performed in a dark room under red light. The virus sample was mixed with the indicated compounds at concentrations from 0 to 10 μM or 100 μM, incubated for 60 min at 37 °C and virus viability was evaluated using a plaque assay (Fig. 9A).
# CaCo-2 cells [2] = assay: Cytotoxicity assay (Cell Counting Kit-8) in CaCo-2 cells; assay type: cell-based, human; conditions: up to 10 µM
# Protocol: (§1) To determine the overall cytotoxicity of the tested compounds, Vero cells were cultured for 24 h in 96-well plates to form a confluent monolayer, and then were treated with the tested compounds at concentrations of 2 and 10 µM. After 48 h of cultivation in the dark at 37 °C under 5% CO2, the cell culture medium was aspirated. The potential cytotoxicity of the tested perylene derivatives was determined based on cell viability using Cell Counting Kit-8 (Dojindo Molecular Technologies, Munich, Germany) according to the manufacturer's instructions. The cell viabilities of compound-treated Vero cells were compared with those of control DMSO-treated cells. We also used the above-described protocol to assess the cytotoxicity of the selected perylene antivirals, at concentrations ranging from 0 to 10 µM, in CaCo-2 and CRFK cells.
# [3] = ROS generation measurement with DMA trap in DMSO; assay type: physicochemical
# Protocol: ROS generation was also estimated using 9,10-dimethylanthracene (DMA), another specific fluorescent singlet oxygen trap, which forms nonfluorescent 9,10-dimethylanthracene endoperoxide after ROS-mediated DMA oxidation. Compounds (0, 0.1, 1, and 10 µM) in DMSO were mixed with DMA (0.5 µM), and these solutions were irradiated for 10 min at room temperature (RT) with light-emitting diodes (LED, 465–480 nm) having approximate power density of 30 mW/cm^2 (device description in Fig. S7). DMA fluorescence intensity was measured at ex/em wavelengths of 370/432 nm in the presence or absence of α-tocopherol (3 µg/mL) as an antioxidant. Singlet oxygen generation was accompanied by a decreased fluorescence signal of the DMA probe ([Zeng et al., 2020]).
# CRFK cells = assay: Cytotoxicity assay (Cell Counting Kit-8) in CRFK cells; assay type: cell-based, Felis catus; conditions: up to 10 µM
# Protocol: as §1
# [4] = test system: SARS-CoV-2 (Wuhan strain); assay: Viral titer inhibition assay, SARS-CoV-2 in CaCo-2 cells; assay type: cell-based; conditions: 0–10 µM
smiles,measurement,setting,value
CC(C)(C)C(=O)OCn1c(=O)c(C#Cc2ccc3c4cccc5cccc(c6cccc2c63)c54)cn(CC(=O)N(CCO)CCO)c1=O [Compound 13],CYP1A1 expression,"CaCo-2 cells [1]; CaCo-2 cells, 10 µM, all tested incubation periods",significantly decreased
same,"expression of HMOX1, SRXN1, TXNRD1 (oxidative stress)","CaCo-2 cells [1]; CaCo-2 cells, 5, 24 and 48 h",did not increase
same,"expression of HSPA5, DDIT3, HSPA1B (HSP70), CDKN1A (p21), GADD45A","CaCo-2 cells [1]; CaCo-2 cells, 5, 24 and 48 h",no changes
same,"expression of early toxicity markers (ATF3, FGF21, GDF15)","CaCo-2 cells [1]; CaCo-2 cells, 5, 24 and 48 h",did not induce
same,antiviral effect under red light only,"SARS-CoV-2; 100 µM, dark room, red light, 60 min at 37 °C",no antiviral effect
same,antiviral activity after blue light irradiation of virus-compound mixture,"SARS-CoV-2; 465–480 nm, 30 mW/cm^2, 10 min, then 60 min at 37 °C in the dark, plaque assay",low-nanomolar
same,antiviral activity under red light only,"SARS-CoV-2; up to 10 µM, dark room, red light, 60 min at 37 °C",completely disappeared
same,tolerability by CaCo-2 cells,CaCo-2 cells [2],well-tolerated
same,"ROS generation, DMA trap, under blue light","[3]; 465–480 nm, 30 mW/cm^2, 10 min",significant bleaching
same,"ROS generation, DMA trap, in the dark or with α-tocopherol","[3]; 10 min, dark or α-tocopherol (3 µg/mL)",no/limited bleaching
same,tolerability by CRFK cells,CRFK cells,well-tolerated
same,anti-SARS-CoV-2 activity in CaCo-2 cells,[4],sub-micromolar
